Reference: US8618289B2 (Ambit Biosciences Corporation, priority 2008, dated 2013)
Read-outs that look alike come from different tables or passages of the source.

Tests used:
[1] = tested on: MEK1 phosphorylation in the A375 human melanoma cell line; assay: cells; conditions: A-375, read-out: pMEK IC50
[2] = tested on: 290 distinct kinases tested excluding mutant variants (321 in the larger panel)
Description: Competition binding assays used herein were developed, validated and performed as described in Fabian et al., Nature Biotechnology 2005, 23, 329-336. […] The liganded beads were blocked with excess biotin and washed with blocking buffer (SeaBlock (Pierce), 1% BSA, 0.05% Tween 20, 1 mM DTT) to remove unbound ligand and to reduce non-specific binding. […] Test compounds were prepared as 100× stocks in DMSO and rapidly diluted into the aqueous environment. DMSO was added to control assays lacking a test compound. Primary screen interactions were performed in polypropylene 384-well plates in a final volume of 34 μt, while Kd determinations were performed in polystyrene 96-well plates in a final volume of 135 pt. […] The kinase concentration in the eluates was measured by quantitative PCR. Each kinase was tested individually against each compound. Kds were determined using eleven serial threefold dilutions. A selectivity score, which is a quantitative measure of selectivity of a compound against a panel of enzymes, may be calculated for a compound by dividing the number of enzymes for which a compound meets a set criteria, (for example, a binding constant of 100 nM or less), by the total number of enzymes tested. […] (Note, for those compounds tested in a larger kinase panel, as indicated by an asterisk (*) next to the S35 score, the divisor is 321 (i.e. the larger panel contains 321 distinct kinases, excluding mutant variants.)).

A375 cells = assay: cells; conditions: Homo sapiens, A-375, read-out: A375 Viability EC50
RAF kinases [3] = molecular target: T1, RAF kinases (Homo sapiens, UniProt P15056); assay: biochemical
T1 sequence (P15056 whole entry): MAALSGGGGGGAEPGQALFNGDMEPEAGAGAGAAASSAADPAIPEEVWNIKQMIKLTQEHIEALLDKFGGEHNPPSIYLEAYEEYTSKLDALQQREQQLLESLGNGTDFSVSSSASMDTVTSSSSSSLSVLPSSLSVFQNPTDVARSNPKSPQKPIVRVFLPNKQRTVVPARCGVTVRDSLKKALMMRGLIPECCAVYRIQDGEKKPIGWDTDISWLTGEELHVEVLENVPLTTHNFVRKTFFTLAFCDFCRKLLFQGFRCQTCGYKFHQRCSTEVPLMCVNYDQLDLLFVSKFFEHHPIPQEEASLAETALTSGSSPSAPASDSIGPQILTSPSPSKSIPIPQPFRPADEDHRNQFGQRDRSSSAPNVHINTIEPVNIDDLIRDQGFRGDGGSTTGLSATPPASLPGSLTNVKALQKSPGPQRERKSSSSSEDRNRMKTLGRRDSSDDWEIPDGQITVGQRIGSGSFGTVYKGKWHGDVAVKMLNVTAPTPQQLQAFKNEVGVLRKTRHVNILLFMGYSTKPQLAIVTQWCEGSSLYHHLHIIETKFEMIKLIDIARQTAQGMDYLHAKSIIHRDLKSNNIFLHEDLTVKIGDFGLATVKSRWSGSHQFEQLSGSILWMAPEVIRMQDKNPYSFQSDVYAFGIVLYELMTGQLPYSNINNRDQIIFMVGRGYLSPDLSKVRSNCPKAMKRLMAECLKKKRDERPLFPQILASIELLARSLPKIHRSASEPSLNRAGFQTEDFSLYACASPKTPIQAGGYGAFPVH

RAF kinases [4] = molecular target: T2, RAF kinases (Homo sapiens, UniProt P15056, V600E); assay: biochemical
T2 sequence (P15056 whole entry V600E): as the sequence (P15056 whole entry) above, with V600E counted along it

RAF kinases [5] = molecular target: T3, RAF kinases (Homo sapiens, UniProt P04049); assay: biochemical
T3 sequence (P04049 whole entry): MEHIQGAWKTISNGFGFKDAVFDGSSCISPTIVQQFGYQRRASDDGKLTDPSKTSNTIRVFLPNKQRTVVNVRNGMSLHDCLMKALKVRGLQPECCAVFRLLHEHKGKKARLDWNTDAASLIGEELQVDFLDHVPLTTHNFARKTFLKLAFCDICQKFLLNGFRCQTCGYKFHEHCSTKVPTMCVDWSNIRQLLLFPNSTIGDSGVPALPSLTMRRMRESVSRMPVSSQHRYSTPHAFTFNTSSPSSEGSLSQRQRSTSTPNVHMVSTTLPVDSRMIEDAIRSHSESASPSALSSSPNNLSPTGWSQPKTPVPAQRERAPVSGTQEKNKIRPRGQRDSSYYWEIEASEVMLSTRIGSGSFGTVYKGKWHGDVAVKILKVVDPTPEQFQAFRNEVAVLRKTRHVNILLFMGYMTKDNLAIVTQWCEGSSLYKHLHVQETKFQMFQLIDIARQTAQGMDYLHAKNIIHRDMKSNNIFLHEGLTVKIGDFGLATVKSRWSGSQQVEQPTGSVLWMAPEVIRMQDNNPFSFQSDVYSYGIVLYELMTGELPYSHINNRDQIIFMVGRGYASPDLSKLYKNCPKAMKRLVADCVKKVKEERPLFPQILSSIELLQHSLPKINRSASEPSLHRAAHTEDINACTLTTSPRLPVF

RAF kinases [6] = molecular target: T1, RAF kinases; conditions: read-out: BRAF WT Kd; BRAF WT
RAF kinases [7] = molecular target: T3, RAF kinases; conditions: read-out: RAF1 Kd; RAF1
RAF kinases [8] = molecular target: T2, RAF kinases; conditions: read-out: BRAF V600E Kd; BRAF V600E
[9] = no asterisk: panel of 290 distinct kinases

Row | Compound | IC50 [1] [nM] | S35 [2, 9] | EC50 (A375 cells) [nM] | Kd (RAF kinases [3]) [nM] | Kd (RAF kinases [4]) [nM] | Kd (RAF kinases [5]) [nM] | S35 ([2]; asterisk: panel of 321 distinct kinases) | Kd (RAF kinases [6]) [nM] | Kd (RAF kinases [7]) [nM] | Kd (RAF kinases [8]) [nM]
1 | COc1cc2c(Sc3cccc(NC(=O)Nc4cc(C(C)(C)C)on4)c3)ncnc2cc1OCCN1CCN(CCO)CC1 [Ex 84, 1-(5-tert-butylisoxazol-3-yl)-3-(3-(7-(2-(4-(2-hydroxyethyl)piperazin-1-yl)ethoxy)-6-methoxyquinazolin-4-ylthio)phenyl)urea] | < 250 | D (D > 0.40) | > 1000 | 250 to 500 | < 250 | 250 to 500 |  |  |  | 
2 | COc1cc2ncnc(Sc3cccc(NC(=O)Nc4cc(C(F)(F)F)nn4-c4ccc(C)cc4)c3)c2cc1OC [Ex 199, 1-[3-(6,7-dimethoxyquinazolin-4-ylthio)phenyl]-3-[1-p-tolyl-3-(trifluoromethyl)-1H-pyrazol-5-yl]urea] | < 250 |  | > 1000 | > 1000 | > 1000 | > 1000 | D* (D > 0.40) |  |  | 
3 | COc1cc2ncnc(Oc3cccc(NC(=O)Nc4cc(C(C)(C)CO)no4)c3)c2cc1OC [Ex 255, 1-(3-(6,7-dimethoxyquinazolin-4-yloxy)phenyl)-3-(3-(1-hydroxy-2-methylpropan-2-yl)isoxazol-5-yl)urea] | > 1000 | C (0.20 < C ≦ 0.40) | > 1000 | 250 to 500 | < 250 | 250 to 500 |  |  |  | 
4 | COc1cc2ncnc(Sc3cccc(NC(=O)Nc4cc(C(C)(C)C(F)(F)F)nn4-c4ccccc4)c3)c2cc1OC [Ex 307, 1-(3-(6,7-dimethoxyquinazolin-4-ylthio)phenyl)-3-(1-phenyl-3-(1,1,1-trifluoro-2-methylpropan-2-yl)-1H-pyrazol-5-yl)urea] | < 250 | D (D > 0.40) |  |  | 250 to 500 |  |  | > 1000 | > 1000 | 
5 | COc1cc2nc(Cl)nc(Oc3cccc(NC(=O)Nc4cc(C(C)(C)C)on4)c3)c2cc1OC [Ex 310, 1-(5-tert-butylisoxazol-3-yl)-3-(3-(2-chloro-6,7-dimethoxyquinazolin-4-yloxy)phenyl)urea] | > 1000 | A (A ≦ 0.10) | > 1000 |  | 500 to 1000 | 500 to 1000 |  | > 1000 |  | 
6 | COc1cc2ncnc(Oc3cccc(NC(=O)Nc4cc(C(C)(F)F)nn4-c4cccnc4)c3)c2cc1OC [Ex 311, 1-(3-(1,1-difluoroethyl)-1-(pyridin-3-yl)-1H-pyrazol-5-yl)-3-(3-(6,7-dimethoxyquinazolin-4-yloxy)phenyl)urea] | 250 to 500 | C (0.20 < C ≦ 0.40) | 250 to 500 |  |  |  |  | < 250 | < 250 | < 250
7 | COc1ccc(-n2nc(C(C)(F)F)cc2NC(=O)Nc2cccc(Oc3ncnc4cc(OC)c(OC)cc34)c2)cc1 [Ex 315, 1-(3-(1,1-difluoroethyl)-1-(4-methoxyphenyl)-1H-pyrazol-5-yl)-3-(3-(6,7-dimethoxyquinazolin-4-yloxy)phenyl)urea] | < 250 | D (D > 0.40) | < 250 |  |  | 500 to 1000 |  | > 1000 |  | < 250
8 | COc1cc2ncnc(Oc3cccc(NC(=O)Nc4cc(C(C)(F)F)nn4-c4cncc(F)c4)c3)c2cc1OC [Ex 316, 1-(3-(1,1-difluoroethyl)-1-(5-fluoropyridin-3-yl)-1H-pyrazol-5-yl)-3-(3-(6,7-dimethoxyquinazolin-4-yloxy)phenyl)urea] | 250 to 500 | C (0.20 < C ≦ 0.40) | 500 to 1000 | 250 to 500 |  |  |  |  | < 250 | < 250
9 | COc1cc2ncnc(Oc3cccc(NC(=O)Nc4cc(C(C)(C)C)nn4-c4ccc(=O)[nH]c4)c3)c2cc1OC [Ex 317, 1-(3-tert-butyl-1-(6-oxo-1,6-dihydropyridin-3-yl)-1H-pyrazol-5-yl)-3-(3-(6,7-dimethoxyquinazolin-4-yloxy)phenyl)urea] | > 1000 | D (D > 0.40) | > 1000 |  |  | 500 to 1000 |  | > 1000 |  | < 250
10 | COc1cc2ncnc(Oc3cccc(NC(=O)Nc4cc(C(C)(C)C)nn4-c4ccnc(C)c4)c3)c2cc1OC [Ex 320, 1-(3-tert-butyl-1-(2-methylpyridin-4-yl)-1H-pyrazol-5-yl)-3-(3-(6,7-dimethoxyquinazolin-4-yloxy)phenyl)urea] | < 250 | D (D > 0.40) |  |  |  |  |  | > 1000 | > 1000 | < 250
11 | CCn1nc(C(C)(C)C)cc1NC(=O)Nc1cccc(Sc2ncnc3cc(OC)c(OC)cc23)c1 [Ex 321, 1-(3-tert-butyl-1-ethyl-1H-pyrazol-5-yl)-3-(3-(6,7-dimethoxyquinazolin-4-ylthio)phenyl)urea] | 250 to 500 | C (0.20 < C ≦ 0.40) | 500 to 1000 | 250 to 500 |  |  |  |  | < 250 | < 250
12 | COc1cc2ncnc(Oc3cccc(NC(=O)Nc4cc(C(C)(C)C)nn4C4CCCCC4)c3)c2cc1OC [Ex 330, 1-(3-tert-butyl-1-cyclohexyl-1H-pyrazol-5-yl)-3-(3-(6,7-dimethoxyquinazolin-4-yloxy)phenyl)urea] | > 1000 | C (0.20 < C ≦ 0.40) | > 1000 |  |  |  |  | > 1000 | > 1000 | < 250
13 | COc1cc2ncnc(Sc3cccc(NC(=O)Nc4cc(C(C)(C)C)nn4C4CCCCC4)c3)c2cc1OC [Ex 331, 1-(3-tert-butyl-1-cyclohexyl-1H-pyrazol-5-yl)-3-(3-(6,7-dimethoxyquinazolin-4-ylthio)phenyl)urea] | < 250 | B (0.10 < B ≦ 0.20) | > 1000 | 500 to 1000 | 250 to 500 | 500 to 1000 |  |  |  | 
14 | COc1cc2ncnc(Sc3cccc(NC(=O)Nc4cc(C(C)(C)C)nn4-c4ccccn4)c3)c2cc1OC [Ex 345, 1-(3-tert-butyl-1-(pyridin-2-yl)-1H-pyrazol-5-yl)-3-(3-(6,7-dimethoxyquinazolin-4-ylthio)phenyl)urea] | 500 to 1000 | B (0.10 < B ≦ 0.20) | > 1000 |  |  |  |  | > 1000 | > 1000 | > 1000
15 | COc1cc2ncnc(Oc3cccc(NC(=O)Nc4cc(C5(C(F)(F)F)CC5)nn4-c4ccc(C)cc4)c3)c2cc1OC [Ex 346, 1-(3-(6,7-dimethoxyquinazolin-4-yloxy)phenyl)-3-(1-p-tolyl-3-(1-(trifluoromethyl)cyclopropyl)-1H-pyrazol-5-yl)urea] | < 250 | D (D > 0.40) |  | > 1000 | < 250 | > 1000 |  |  |  | 
16 | COc1ccc(-n2nc(C(C)C)cc2NC(=O)Nc2cccc(Oc3ncnc4cc(OC)c(OC)cc34)c2)cc1 [Ex 348, 1-(3-(6,7-dimethoxyquinazolin-4-yloxy)phenyl)-3-(3-isopropyl-1-(4-methoxyphenyl)-1H-pyrazol-5-yl)urea] | < 250 | D (D > 0.40) | < 250 |  |  | 500 to 1000 |  | > 1000 |  | < 250
17 | COc1ccc(-n2nc(C(C)C)cc2NC(=O)Nc2cccc(Sc3ncnc4cc(OC)c(OC)cc34)c2)cc1 [Ex 349, 1-(3-(6,7-dimethoxyquinazolin-4-ylthio)phenyl)-3-(3-isopropyl-1-(4-methoxyphenyl)-1H-pyrazol-5-yl)urea] | < 250 | C (0.20 < C ≦ 0.40) | < 250 |  |  | 500 to 1000 |  | > 1000 |  | < 250
18 | COc1cc2ncnc(Oc3cccc(NC(=O)Nc4cc(C(C)C)nn4-c4cccnc4)c3)c2cc1OC [Ex 350, 1-(3-(6,7-dimethoxyquinazolin-4-yloxy)phenyl)-3-(3-isopropyl-1-(pyridin-3-yl)-1H-pyrazol-5-yl)urea] | 250 to 500 | D (D > 0.40) | 250 to 500 |  |  |  |  | < 250 | < 250 | < 250
19 | COc1cc2ncnc(Sc3cccc(NC(=O)Nc4cc(C(C)C)nn4-c4cccnc4)c3)c2cc1OC [Ex 351, 1-(3-(6,7-dimethoxyquinazolin-4-ylthio)phenyl)-3-(3-isopropyl-1-(pyridin-3-yl)-1H-pyrazol-5-yl)urea] | < 250 | C (0.20 < C ≦ 0.40) | 250 to 500 | 500 to 1000 |  |  |  |  | < 250 | < 250
20 | CCc1cc(NC(=O)Nc2cccc(Oc3ncnc4cc(OC)c(OC)cc34)c2)n(-c2ccccc2)n1 [Ex 352, 1-(3-(6,7-dimethoxyquinazolin-4-yloxy)phenyl)-3-(3-ethyl-1-phenyl-1H-pyrazol-5-yl)urea] | 500 to 1000 | C (0.20 < C ≦ 0.40) | 250 to 500 |  |  |  |  | < 250 | < 250 | < 250
21 | COc1cc2ncnc(Oc3cccc(NC(=O)Nc4cc(C5CC5)nn4-c4ccccc4)c3)c2cc1OC [Ex 353, 1-(3-cyclopropyl-1-phenyl-1H-pyrazol-5-yl)-3-(3-(6,7-dimethoxyquinazolin-4-yloxy)phenyl)urea] | 250 to 500 | C (0.20 < C ≦ 0.40) | 250 to 500 | 250 to 500 |  |  |  |  | < 250 | < 250
22 | COc1cc2ncnc(Sc3cccc(NC(=O)Nc4cc(C5CC5)nn4-c4ccccc4)c3)c2cc1OC [Ex 354, 1-(3-cyclopropyl-1-phenyl-1H-pyrazol-5-yl)-3-(3-(6,7-dimethoxyquinazolin-4-ylthio)phenyl)urea] | 250 to 500 | C (0.20 < C ≦ 0.40) | 250 to 500 |  |  |  |  | < 250 | < 250 | < 250
